Assay results reported in patent US11865110B2, “Thrombin inhibitors, formulations, and uses thereof” (VERSEON INTERNATIONAL CORPORATION, priority 2018, dated 2024).

Key:
thrombin = molecular target: T1, thrombin (Homo sapiens, UniProt P00734); test: Human Thrombin Generation Assay (TGA); assay type: biochemical; settings: concentration that reduces endogenous thrombin potential AUC by 50%; human plasma; read-out: ETP EC50
T1 construct: from tissue; host or cells: human plasma (thrombin generated in situ by tissue factor, phospholipids and CaCl2)
Method: Results for the human thrombin generation assay (TGA; not to be confused with “thermogravimetric analysis” which is used elsewhere and carries the same acronym. One of skill in the art will appreciate which meaning is intended based on context of the surrounding technical information.) were generated as follows. In a 96-well plate, 4 μL of 100, 33.3, 11.1, 3.7, 1.23, 0.41, 0.137, and 0.046 μM solutions of the test compounds in DMSO were added to sequential wells filled with 68 μL of a “TGA Working Solution.” See description of this solution as well as other relevant solutions below. The plate was incubated at room temperature for 10 minutes, whereupon 8 μL of warm “Substrate Solution” was added to each well, resulting in a 500 μM concentration of the substrate, Z-GGR-AMC (Z-Gly-Gly-Arg-7-amino-4-methylcoumarin·HCl), in each well. Fluorescence intensity data (Ex/Em 380/460 nm) collection began immediately using a Cytation™ or Synergy™ H1 96-well plate reader set to incubate the plate at 37° C. over the data collection time of 90 minutes following double-orbital shaking for a period of 4 seconds. Test compounds were measured parallel to blanks and controls, as well as to wells of the substrate in DMSO at various concentrations (2.50, 0.833, 0.278, 0.093 mM) in the buffers to generate a standard fluorescence curve. Data values were computed automatically, including the ETP EC50 value of the AUC, which is the concentration of the compound that reduces endogenous thrombin potential AUC by 50%.
The various solutions were prepared as follows. A HEPES/NaCl Assay buffer was made by combining 7.5 mL of 5M NaCl, 1.19 g 4-(2-hydroxyethyl)piperazine-1-ethanesulfonic acid (HEPES) and 230 mL of water. An “Innovin Master Solution” was made by combining 20 μL of Siemens Dade Innovin recombinant tissue factor and thromboplastin with 50 μL of 0.5 mM phospholipid-TGT acquired from DiaPharma® in 450 μL of the above HEPES/NaCl Assay buffer. This solution was then vortexed for a few seconds. Next the “Substrate Master Solution” was made by adding 3.2 mL DMSO to 100 mg of Z-GGR-AMC (Z-Gly-Gly-Arg-7-amino-4-methylcoumarin·HCl) and vortexing in a polystyrene tube. This solution was stored at −20° C. A “TGA Working Solution” was prepared by adding 6.2 mL of human plasma, 50 μL of the Innovin Master Solution, and 80 μL of phospholipids to 2.6 mL of HEPES/NaCl Assay buffer. A “Substrate Working Solution” was made immediately before addition to the assay plate by adding 200 μL of the above “Substrate Master Solution” to a pre-warmed (37° C.) mixture of 1.46 mL of HEPES/NaCl Assay buffer and 340 μL of 1M CaCl2).
For additional description of this assay, please see Robert, S. et al. ‘Is thrombin generation the new rapid, reliable and relevant pharmacological tool for the development of anticoagulant drugs?’2009, Pharmacol Res 59:160-6 as well as Hemker, H. C. et al. ‘Calibrated automated thrombin generation measurement in clotting plasma.’ 2003, Pathophysiol Haemost Thromb 33:4-15.

[1] = Mouse liver microsome stability; assay type: in vitro ADME, mouse (CD-1); settings: pH 7.4; CD-1 mouse liver microsomes 0.5 mg/mL, NADPH, 37° C.; lower measurable bound 5
Method: In a 96-well Nunc™ plate, 1.5 μL of a 200 μM solution of the test compound in DMSO were placed in a well. This plate, the “Reaction Plate,” was then warmed to 37° C. in an oven. In a second 96-well Nunc™ plate, the “Quench Plate,” six wells were filled with 180 μL of an internal standard quench solution composed of 100 nM diclofenac in acetonitrile. These six wells correspond to the six time points for data collection: 0, 0.5, 5, 15, 30, and 60 minutes. “Assay Buffer” was prepared by combining 6.96 g potassium phosphate, dibasic, 1.36 g potassium phosphate, monobasic, and 0.30 g of magnesium chloride hexahydrate, then diluting to a final concentration of 500 mL in water and adjusting to pH 7.4, as needed. Assay Buffer was warmed to 37° C., and 12 mL were added to a 10-mg vial of NADPH. Then 300 μL of a 20 mg/mL liver microsome suspension were added to yield a 0.5 mg/mL liver microsome suspension. 300 μL of this liver microsome suspension was then added to the test compound solution in the Reaction Plate and mixed thoroughly with a pipette tip. At each time point, 30 μL of this mixture was transferred to the corresponding well of the Quench Plate. In between time points, the Reaction Plate was kept sealed and warmed in an incubator at 37° C. When the last time point had been completed, the quench plate was centrifuged at 4° C. at 1000×g for 10 minutes. Afterwards, 50 μL of the supernatant of each well was transferred to unique, corresponding wells of a 96-well Costar® plate, the “Analysis Plate,” filled with 150 μL of 50:50 acetonitrile:HyClone™ water. The Analysis Plate was then sealed with a pre-slit plate seal before analysis via an appropriate LCMS method with a 10 μL injection. The abstracted AUC data were then automatically plotted to calculate intrinsic clearance in μL/min/mg. This experiment was run alongside a positive and negative control. Due to the parameters of this procedure, one of skill in the art will appreciate that this assay has a lower measurable bound of 5 μL/min/mg; therefore, certain compounds have their clearances labeled as ≤5 μL/min/mg.

Mouse plasma stability = assay type: in vitro ADME, mouse (CD-1); settings: CD-1 mouse plasma, 37° C., time points to 160 min; read-out: Mouse Plasma Stability t1/2
Method: Alongside a positive control of propantheline bromide, 8 μL of a 1 mM solution of each test compound in DMSO was placed in two wells of a Nunc™ 96-well plate called the “dilution plate.” To one well, 392 μL of HyClone™ water was added and mixed by a pipette. To the other well, 392 μL of mouse or rat plasma stabilized with sodium citrate purchased from Innovative Research was added and mixed by a pipette. The dilution plate was kept covered to reduce solvent evaporation and heated in an incubator at 37° C. At each of the time points enumerated below, the plate was removed from the incubator and 50 μL of the test compound/water or test compound/plasma solutions were transferred to a unique, corresponding well in a “quench plate” (96-well Costar® plate) that contains 150 μL of a quench solution that contains an internal standard (20 uM diclofenac in acetonitrile). The dilution plate was then returned to the incubator. This process was performed at 0, 5, 10, 20, 40, 80, and 160 minutes from the original mixing of the test compounds with the water or plasma in the dilution plate. After the quenching of the 160-minute time point, the quench plate was then centrifuged at 4° C. at 1000×g for 10 minutes. 100 μL of the supernatant of each well were then transferred to corresponding unique wells in a “read plate” (96-well Costar® plate) that were filled with 100 μL of HyClone™ water. The plate was then sealed and analyzed via UHPLC using a 10-μL sample injection through a Phenomenex® Kinetex column pre-equilibrated with the loading buffer (95:5 water:acetonitrile). The parameters were as follows. Mobile Phase A: water, 0.025% formic acid. Mobile Phase B: acetonitrile, 0.025% formic acid. Flow Rate: 0.5 mL/min. […] Half-life (t1/2) times were computed by using a chi-square analysis to fit the peak areas to an exponential decay model for compound concentration as a function of time.

malignant breast tumors = settings: treated mice, cited from earlier work

SMILES	EC50 (thrombin) [nM]	further results
Cc1nc(C)c(COC(=O)CCn2cccc(-c3cc(NCc4ccc(Cl)s4)n(C(=O)C(C)(C)C)n3)c2=O)nc1C [Compound 20, (3,5,6-trimethylpyrazin-2-yl)methyl 3-[3-(5-{[(5-chlorothiophen-2-yl)methyl]amino}-1-(2,2-dimethylpropanoyl)-1H-pyrazol-3-yl)-2-oxo-1,2-dihydropyridin-1-yl]propanoate]	2400	
CC(C)(C)C(=O)n1nc(-c2cccn(CC(F)(F)C(=O)O)c2=O)cc1NCc1ccc(Cl)s1 [Compound 6, 3-[3-(5-{[(5-chlorothiophen-2-yl)methyl]amino}-1-(2,2-dimethylpropanoyl)-1H-pyrazol-3-yl)-2-oxo-1,2-dihydropyridin-1-yl]-2,2-difluoropropanoic acid]	5400	microsomal CLint at 1 µM [1]: 9 µL/min/mg; half-life at 20 µM (Mouse plasma stability): 0.117 h
CC(C)[C@H](NC(=O)OC(C)(C)C)C(=O)OCOC(=O)CCn1cccc(-c2cc(NCc3ccc(Cl)s3)n(C(=O)C(C)(C)C)n2)c1=O [Compound 21, ({3-[3-(5-{[(5-chlorothiophen-2-yl)methyl]amino}-1-(2,2-dimethylpropanoyl)-1H-pyrazol-3-yl)-2-oxo-1,2-dihydropyridin-1-yl]propanoyl}oxy)methyl (2S)-2-{[(tert-butoxy)carbonyl]amino}-3-methylbutanoate]	4800	
CCCCCCOC(=O)N=C(N)c1ccc(NCc2nc3cc(C(=O)N(CCC(=O)OCC)c4ccccn4)ccc3n2C)cc1 [dabigatran etexilate]		reduction in tumor volume (malignant breast tumors; at 4 weeks): 50%; reduction of tumor cells in the blood and liver micrometastases (malignant breast tumors): 50-60%
CCOC(=O)CCn1cccc(-c2cc(NCc3ccc(Cl)s3)n(C(=O)C(C)(C)C)n2)c1=O [Compound 15, ethyl 3-[3-(5-{[(5-chlorothiophen-2-yl)methyl]amino}-1-(2,2-dimethylpropanoyl)-1H-pyrazol-3-yl)-2-oxo-1,2-dihydropyridin-1-yl]propanoate]	2900	
[2H]C([2H])(C(=O)O)C([2H])([2H])n1cccc(-c2cc(NCc3ccc(Cl)s3)n(C(=O)C(C)(C)C)n2)c1=O [Compound 22, 3-[3-(5-{[(5-chlorothiophen-2-yl)methyl]amino}-1-(2,2-dimethylpropanoyl)-1H-pyrazol-3-yl)-2-oxo-1,2-dihydropyridin-1-yl](2H4)propanoic acid]	1900	
[2H]C([2H])(Nc1cc(-c2cccn(CCC(=O)O)c2=O)nn1C(=O)C(C)(C)C)c1ccc(Cl)s1 [Compound 24, 3-[3-(5-{[(5-chlorothiophen-2-yl)(2H2)methyl]amino}-1-(2,2-dimethylpropanoyl)-1H-pyrazol-3-yl)-2-oxo-1,2-dihydropyridin-1-yl]propanoic acid]	2400	
CC(C)(CO)C(=O)n1nc(-c2cccn(CCC(=O)O)c2=O)cc1NCc1ccc(Cl)s1 [Compound 10, 3-[3-(5-{[(5-chlorothiophen-2-yl)methyl]amino}-1-(3-hydroxy-2,2-dimethylpropanoyl)-1H-pyrazol-3-yl)-2-oxo-1,2-dihydropyridin-1-yl]propanoic acid]	1700 to 10000	microsomal CLint at 1 µM [1]: 4 µL/min/mg; half-life at 20 µM (Mouse plasma stability): 1.17 h

More lines, main results first:

EC50 (thrombin) [nM]	SMILES	further results
850 to 970	COCCn1cccc(-c2cc(NCc3ccc(Cl)s3)n(C(=O)C(C)(C)C)n2)c1=O [Compound 7, 3-(5-{[(5-chlorothiophen-2-yl)methyl]amino}-1-(2,2-dimethylpropanoyl)-1H-pyrazol-3-yl)-1-(2-methoxyethyl)-1,2-dihydropyridin-2-one]	microsomal CLint at 1 µM [1]: 290 µL/min/mg; half-life at 20 µM (Mouse plasma stability): ≥ 5 h
1900	C=CCOC(=O)CCn1cccc(-c2cc(NCc3ccc(Cl)s3)n(C(=O)C(C)(C)C)n2)c1=O [Compound 16, prop-2-en-1-yl 3-[3-(5-{[(5-chlorothiophen-2-yl)methyl]amino}-1-(2,2-dimethylpropanoyl)-1H-pyrazol-3-yl)-2-oxo-1,2-dihydropyridin-1-yl]propanoate]	
1200	CC(=O)OCCOC(=O)CCn1cccc(-c2cc(NCc3ccc(Cl)s3)n(C(=O)C(C)(C)C)n2)c1=O [Compound 17, 2-(acetyloxy)ethyl 3-[3-(5-{[(5-chlorothiophen-2-yl)methyl]amino}-1-(2,2-dimethylpropanoyl)-1H-pyrazol-3-yl)-2-oxo-1,2-dihydropyridin-1-yl]propanoate]	
1300	CC(=O)OC(C)OC(=O)CCn1cccc(-c2cc(NCc3ccc(Cl)s3)n(C(=O)C(C)(C)C)n2)c1=O (stereo not shown) [Compound 18, 1-(acetyloxy)ethyl 3-[3-(5-{[(5-chlorothiophen-2-yl)methyl]amino}-1-(2,2-dimethylpropanoyl)-1H-pyrazol-3-yl)-2-oxo-1,2-dihydropyridin-1-yl]propanoate]	
